Source: patent US20140336365A1, “CDR REGIONS OF MONOCLONAL ANTIBODY THAT ANTAGONIZE SPHINOGOSINE 1-PHOSPHATE AND RELATED METHODS” (priority 2011, published 2014)
Values belong to the molecule of their own block, whether it stands above or below them.

Columns and labels:
S1P receptors = conditions: with the exception of S1P2; by stable internalization; cited from earlier work
tumor transplant model = conditions: cited from earlier work
[1] = system: MDA-MB-231 breast cancer cells; assay: S1P-induced cytoskeletal rearrangement / cell rounding (phalloidin staining); format: cell-based, human
Experimental: MDA-MB-231 breast cancer cells are cultured on collagen-coated coverslips in the presence of 10% FBS using standard techniques. Because S1P is present at high concentrations in serum, BCCs are “serum-starved” in Dulbecco's modified Eagle medium (DMEM) for 12 hours prior to experimental manipulation. S1P is solubilized with bovine serum albumin (BSA) carrier and administered at a final concentration of 1 nM to 1 μM. Coverslips are collected at representative time points such as 10 minutes, 1 hr., 2 hrs., 4 hrs., and 6 hrs., fixed with 4% paraformaldehyde, and stained with rhodamine-conjugated phalloidin to label cytoskeletal actin.
The cell rounding experiment can be performed using an antagonist of S1P that binds to S1P3. For example, the antiserum described in Example 1 can be employed. Serum-starved MDA-MB-231 cells are incubated with preimmune serum or S1P3-reactive antiserum for 15 minutes prior to a 30-minute exposure to 10 nM S1P, then evaluated for response both in % cells responding and average cell area.
MDA-MB-231 cells are grown under standard culture conditions and serum starved for 24 hours prior to experimental manipulation. S1P3 antiserum or pre-immune serum obtained from the same rabbit is added to the media at a final concentration of 1:10,000 as indicated. 15 minutes later, S1P is added to the media to a final concentration of 10 nM. 30 minutes after S1P administration, cells are fixed with 4% paraformaldehyde, stained with rhodamine-conjugated phalloidin, and visualized with fluorescence microscopy. Rounded cells are counted by an experimenter blinded to the identity of the sample. Cell area is determined by quantification with ImageJ software.

MCF-7 = assay: Cell proliferation by BrdU incorporation, MCF-7; format: cell-based, human
Experimental: (§1) The experiment can first be performed in the absence of the antagonist. The effect of S1P on cell proliferation is determined by measuring bromodeoxyuridine (BrdU) incorporation. In this assay, cells are treated with S1P or vehicle control (0.1% fatty acid-free BSA) for 30 minutes before being exposed to a 30-minute BrdU pulse. Cells are then fixed with ethanol, labeled with a biotinylated α-BrdU antibody, incubated with streptavidin-peroxidase, developed with DAB, and counter-stained with hematoxylin. Nuclei of cells in S-phase during the 30-minute pulse are labeled brown, while non-proliferative cells show the blue hematoxylin stain.

MDA-MB-231 = assay: Cell proliferation by BrdU incorporation, MDA-MB-231; format: cell-based, human
Experimental: as §1

MCF-7 cells = assay: Cell death by annexin V assay (FACS); format: cell-based, human; conditions: for % Annexin positive cells: overnight
Experimental: Quantification of cell death can be performed with an annexin V assay. […] of 500 nM S1P, then collected by trypsinization, and labeled with Alexafluor 488-conjugated annexin V (Invitrogen Corp, Carlsbad, Calif.) per manufacturer's protocol. Cells can be counted on a FACSAria cell sorting system and analyzed with FACSDiva software (BD Biosciences, San Jose, Calif.). […] This effect is attenuated by co-administration of 500 nM S1P.

MDA-MB-231 cells [2] = assay: Tamoxifen toxicity, cell viability by phase contrast microscopy; format: cell-based, human
Experimental: The experiment can be performed first without a S1P antagonist. MDA-MB-231 cells are cultured under standard conditions in Dulbecco's Minimal Essential Media supplemented with 10% fetal bovine serum and glutamate. Cells are grown in the absence of serum for 24 hours prior to experimental manipulation. Tamoxifen (Tam) and S1P are added to the media at the indicated concentrations for the indicated times at the appropriate concentrations (e.g., 3 μM Tam, 10 μM Tarn, and 20 μM Tam) for appropriate times (e.g., 6 hrs. and 24 hrs.). Cell viability is observed by direct illumination with an inverted phase contrast microscope.
The tamoxifen toxicity experiment can be performed using an antagonist of S1P that binds to S1P3. For example, the antiserum described in Example 1 can be employed. MDA-MB-231 cells are cultured under standard conditions in Dulbecco's Minimal Essential Media supplemented with 10% fetal bovine serum and glutamate. Serum concentration is reduced to 1% for 24 hours prior to experimental manipulation. Tamoxifen and S1P are added to the media at the appropriate concentrations (e.g., 0 μM Tam, 10 μM Tam, and 20 μM Tam) for appropriate times (e.g., 6 hrs. and 24 hrs.). Cell viability is observed by direct illumination with an inverted phase contrast microscope.

MDA-MB-231 cells [3] = assay: Cell motility, modified Boyden's chamber assay; format: cell-based, human; conditions: 1 μM S1P
Experimental: Cell motility is determined using a modified Boyden's chamber assay. MDA-MB-231 cells are introduced into the upper wells of collagen-coated chambers in serum-free DMEM and incubated for 30 minutes before the addition of either 1 μM S1P in BSA or BSA alone. At the indicated times, wells are isolated and fixed with 4% paraformaldehyde before non-migrated cells in the upper well are removed with a cotton swab. Membranes are then stained with DAPI to visualize individual migrated cells on the bottom of the membranes. Results shown are the averages of three independent experiments.

S1P3 = target: T1, S1P3 (Homo sapiens, UniProt Q99500); assay: Immunocytochemistry of hybridoma supernatants on HEK293 cells expressing tagged S1P3; format: binding; conditions: HEK293 cells expressing S1P3 fused to V5 or EGFP
T1 construct: expressed in transfected cells; host or cells: HEK293 (pcDNA3.1)
From the text: A synthetic peptide is synthesized with the amino acid sequence: KKTFSLSPTVWFLREG. This sequence corresponds to the extra-cellular loop between transmembrane domains 2 and 3 of cell surface receptor S1P3. This peptide is conjugated to keyhole limpet hemocyanin (KLH) and used for the immunization of 5 balb/c mice. Production of specific antibodies is confirmed by immunocytochemistry. HEK293 cells are transiently transfected with a mammalian expression vector (pcDNA3.1) encoding the full-length S1P3 protein fused to either a V5 epitope or enhanced green fluorescent protein (EGFP) on its C-terminal end. After 16-36 hours, cells are fixed with 4% paraformaldehyde, blocked with BSA, and exposed to antiserum from immunized mice (dilutions of 1:10, 1:25, 1:50, 1:100, 1:250, 1:500, 1:1,000, 1:2,000, 1:5,000), or supernatants from hybridoma cultures. […] Binding of antibodies from serum or supernatants is detected with a Cy3-conjugated secondary antibody. Specificity of binding is evaluated by coincidence of this signal with green fluorescence, either from the expressed EGFP fusion protein or from secondary antibody bound to the expressed V5 epitope.
Mice are immunized with KLH-conjugated peptide at regular intervals and evaluated by enzyme-linked immunosorbent assay (ELISA) and immunocytochemistry until sera are identified that contain specific antibodies (2-3 months). […]

T1 sequence (Q99500 whole entry, the tested form may be a part): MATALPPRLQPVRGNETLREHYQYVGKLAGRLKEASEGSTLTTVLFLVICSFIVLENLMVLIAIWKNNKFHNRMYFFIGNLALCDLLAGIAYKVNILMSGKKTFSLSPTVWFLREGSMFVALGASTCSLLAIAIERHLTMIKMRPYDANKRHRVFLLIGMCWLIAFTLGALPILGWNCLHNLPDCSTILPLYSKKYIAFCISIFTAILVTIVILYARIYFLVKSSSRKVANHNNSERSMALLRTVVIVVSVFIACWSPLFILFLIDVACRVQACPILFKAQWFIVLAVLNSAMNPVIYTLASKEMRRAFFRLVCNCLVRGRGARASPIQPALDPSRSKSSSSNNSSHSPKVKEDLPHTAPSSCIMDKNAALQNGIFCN

Molecule: CCCCCCCCc1ccc(CCC(N)(CO)CO)cc1 [FTY720]
Inhibition of S1P receptors (S1P receptors): effectively inhibit four of the five known receptors
Effect on angiogenesis and tumor growth (tumor transplant model): inhibit angiogenesis and subsequent growth

Molecule: CCCCCCCCCCCCC/C=C/[C@@H](O)[C@@H](N)COP(=O)(O)O [S1P, Sphingosine 1-phosphate]
Cell shape change ([1]; 1 nM S1P): minor cell shape changes
Cell shape change ([1]; 10 nM S1P): dramatic cell rounding
% Rounded Cells Following S1P Treatment ([1]; 10 nM S1P, 30 min, no serum): 64%
Average Cell Area Following S1P Treatment ([1]; 10 nM S1P, 30 min, no serum): 960.4 μm^2
Cells with marked cytoskeletal rearrangement ([1]; 1 μM S1P, within 10 minutes): > 90%
Effect on mitosis (BrdU incorporation), in words (MCF-7): dose-dependent increase in mitosis
Mitosis by BrdU incorporation (MCF-7; 10 nM S1P): 49%
Mitosis by BrdU incorporation (MCF-7; 100 nM S1P): 45%
Mitosis by BrdU incorporation (MCF-7; 1 μM S1P): 61%
Effect on mitosis (BrdU incorporation), in words (MDA-MB-231): dose-dependent increase in mitosis
Mitosis by BrdU incorporation (MDA-MB-231; 10 nM S1P): 71%
Mitosis by BrdU incorporation (MDA-MB-231; 100 nM S1P): 84%
Mitosis by BrdU incorporation (MDA-MB-231; 1 μM S1P): 88%
% Annexin positive cells (MCF-7 cells; 500 nM S1P with 10 μM Tamoxifen): 15.9%
% Annexin positive cells (MCF-7 cells; 500 nM S1P with 20 μM Tamoxifen): 20.2%
% Annexin positive cells (MCF-7 cells; 500 nM S1P, 0 Tamoxifen): 6.2%
Effect on tamoxifen-induced annexin V binding, in words (MCF-7 cells; co-administration of 500 nM S1P): attenuated
Cell viability under tamoxifen with S1P (MDA-MB-231 cells [2]; 1 μM S1P with 10 or 20 μM tamoxifen, 6 hours, serum-free): many viable cells remain
Survival under tamoxifen with S1P (MDA-MB-231 cells [2]; S1P with 3 or 10 μM tamoxifen, 24 hour, serum-free): markedly improves survival
Effect on cell motility compared to vehicle control, in words (MDA-MB-231 cells [3]): rapid and significant increase in cell motility
Cell migration (migrated cells) (MDA-MB-231 cells [3]; 1 hours): 672.5 Cells/mm^2
Cell migration (migrated cells) (MDA-MB-231 cells [3]; 2 hours): 900 Cells/mm^2
Cell migration (migrated cells) (MDA-MB-231 cells [3]; 4 hours): 1385 Cells/mm^2
Increase in migrated cells compared to vehicle control (MDA-MB-231 cells [3]; two hour time point): nearly two-fold increase
Increase in migrated cells compared to vehicle control (MDA-MB-231 cells [3]; within one hour): 74%

Molecule: CC/C(=C(\c1ccccc1)c1ccc(OCCN(C)C)cc1)c1ccccc1 [Tamoxifen]
% Annexin positive cells (MCF-7 cells; 10 μM Tamoxifen, BSA (no S1P)): 20.1%
% Annexin positive cells (MCF-7 cells; 20 μM Tamoxifen, BSA (no S1P)): 28.9%
Effect on annexin V binding (apoptotic cell death), in words (MCF-7 cells; overnight treatment with tamoxifen): increase in annexin V binding
Cell viability (MDA-MB-231 cells [2]; 3 μM tamoxifen, 24 hour, serum-free): most control cells are lost
Cell viability (MDA-MB-231 cells [2]; 10 μM Tam, 6 hours, 1% FBS): appear normal
Cell viability (MDA-MB-231 cells [2]; 10 μM tamoxifen, 6 hours, serum-free): only a few viable cells remain
Cell viability (MDA-MB-231 cells [2]; 10 μM tamoxifen, 24 hour, serum-free): cell death is complete
Cell viability (MDA-MB-231 cells [2]; 20 μM Tam, 6 hours, 1% FBS): begin to show evidence of cell death
Cell viability (MDA-MB-231 cells [2]; 20 μM tamoxifen, 6 hours, serum-free): all cells are dead/dying

Presence of specific antibodies in hybridoma supernatant by immunocytochemistry (S1P3): positive
B1: EDDbeta7H9: Hybridoma EDDbeta7H9 (ATCC PTA-9973) produces the monoclonal antibody Mab7H9, which binds S1P3 (antibody, V domains shown)
VL: DIVMTQSHKFMSTSVGDRVSITCKASQDVSTGVVWYQQKEGQSPKLLIYSASYRYTGVPNRFTGSGSGTDFTFTISGVQAEDLAVYYCQQHYSSPTFGGGTKLEIKRADAAPTVSIFPPSS
VH: QVTLKESGPGILQPSQTLSLTCSFSGFSLSTSNMGVGWIRQPSGKGLEWLLHILWNDNKHYNPALKSRLTISKDTYKNQVFLKIANVDTADTATYYCARILYRSNYYVMDYWGQGTSVTVSSAKTTPPSVYPL
